# Reference: patent US9695155B2, “Herbicidal substituted pyrimidinyloxy benzene compounds” (E. I. DU PONT DE NEMOURS AND COMPANY, priority 2013, dated 2017)
# Tests used:
# hairy beggarticks = test: Test E preemergence; format: in vivo, Bidens pilosa; details: for Beggarticks plant response rating: scale 0 to 100 (0 no effect, 100 complete control); for Plant response rating, Beggarticks: scale 0 to 100, 0 no effect, 100 complete control
# Method in brief: (§1)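 Response was scored visually on a 0-100 scale (100 = complete control) versus controls after 14 to 21 days in the greenhouse. Test chemicals, formulated with surfactant in a non-phytotoxic solvent mixture, had been applied preemergence to seeds in silt loam soil or postemergence to 1- to 4-leaf plants in potting medium.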
# Italian ryegrass = test: Test E preemergence; format: in vivo, Lolium multiflorum; details: for Ryegrass, Italian plant response rating: scale 0 to 100 (0 no effect, 100 complete control); for Plant response rating, Ryegrass, Italian: scale 0 to 100, 0 no effect, 100 complete control
# Method in brief: as §1
# nightshade = test: Test E preemergence; format: in vivo, Solanum ptycanthum; details: for Nightshade plant response rating: scale 0 to 100 (0 no effect, 100 complete control); for Plant response rating, Nightshade: scale 0 to 100, 0 no effect, 100 complete control
# Method in brief: as §1
# kochia [1] = test: Test E preemergence; format: in vivo, Kochia scoparia; details: for Kochia plant response rating: scale 0 to 100 (0 no effect, 100 complete control); for Plant response rating, Kochia: scale 0 to 100, 0 no effect, 100 complete control
# Method in brief: as §1
# morningglory = test: Test E preemergence; format: in vivo, Ipomoea coccinea; details: for Morningglory plant response rating: scale 0 to 100 (0 no effect, 100 complete control); for Plant response rating, Morningglory: scale 0 to 100, 0 no effect, 100 complete control
# Method in brief: as §1
# johnsongrass = test: Test E preemergence; format: in vivo, Sorghum halepense; details: for Johnsongrass plant response rating: scale 0 to 100 (0 no effect, 100 complete control); for Plant response rating, Johnsongrass: scale 0 to 100, 0 no effect, 100 complete control
# Method in brief: as §1
# goosegrass = test: Test E preemergence; format: in vivo, Eleusine indica; details: for Goosegrass plant response rating: scale 0 to 100 (0 no effect, 100 complete control); for Plant response rating, Goosegrass: scale 0 to 100, 0 no effect, 100 complete control
# Method in brief: as §1
# waterhemp = test: Test E preemergence; format: in vivo, Amaranthus rudis; details: for Waterhemp plant response rating: scale 0 to 100 (0 no effect, 100 complete control); for Plant response rating, Waterhemp: scale 0 to 100, 0 no effect, 100 complete control
# Method in brief: as §1
# field bindweed = test: Test E preemergence; format: in vivo, Convolvulus arvensis; details: for Field Bindweed plant response rating: scale 0 to 100 (0 no effect, 100 complete control); for Plant response rating, Field Bindweed: scale 0 to 100, 0 no effect, 100 complete control
# Method in brief: as §1
# giant foxtail = test: Test E preemergence; format: in vivo, Setaria faberii; details: for Foxtail, Giant plant response rating: scale 0 to 100 (0 no effect, 100 complete control); for Plant response rating, Foxtail, Giant: scale 0 to 100, 0 no effect, 100 complete control
# Method in brief: as §1
# corn = test: Test E preemergence; format: in vivo, Zea mays; details: for Corn plant response rating: scale 0 to 100 (0 no effect, 100 complete control); for Plant response rating, Corn: scale 0 to 100, 0 no effect, 100 complete control
# Method in brief: as §1
# kochia [2] = test: Test A preemergence; format: in vivo, Kochia scoparia; details: for Plant response rating, Kochia: 125 g ai/ha, 0 to 100 scale where 0 is no effect and 100 is complete control; for Kochia plant response rating: 500 g ai/ha, 0 to 100 scale, 0 no effect, 100 complete control, approx. 10 days
# Method in brief: (§2)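 Visual 0–100 rating (100 = complete control) taken about 10 d post-treatment relative to untreated checks. Preemergence: directed soil spray on sown loam/sand pots. Postemergence: seedlings 2–10 cm, 1–2 leaf. Non-phytotoxic solvent formulation with surfactant.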
# ragweed = test: Test A postemergence; format: in vivo, Ambrosia elatior; details: 0 to 100 scale where 0 is no effect and 100 is complete control
# Method in brief: as §2
# kochia [3] = test: Test A postemergence; format: in vivo, Kochia scoparia; details: 0 to 100 scale where 0 is no effect and 100 is complete control
# Method in brief: as §2
# galium = test: Test A postemergence; format: in vivo, Galium aparine; details: 0 to 100 scale where 0 is no effect and 100 is complete control
# Method in brief: as §2
compound,measurement,setting,value
CCOc1cnn(-c2c(C#N)cccc2Oc2ncc(F)cn2)c1 [Compound 89],Beggarticks plant response rating,"hairy beggarticks; 31 g ai/ha, preemergence",35
same,"Plant response rating, Beggarticks","hairy beggarticks; Preemergence, 62 g ai/ha",60
same,"Plant response rating, Beggarticks","hairy beggarticks; preemergence, 125 g ai/ha",80
same,"Plant response rating, Beggarticks","hairy beggarticks; preemergence, 250 g ai/ha",95
same,"Ryegrass, Italian plant response rating",Italian ryegrass; 31 g ai/ha,0
same,"Ryegrass, Italian plant response rating",Italian ryegrass; 62 g ai/ha,0
same,"Plant response rating, Ryegrass, Italian",Italian ryegrass; 125 g ai/ha,0
same,"Plant response rating, Ryegrass, Italian",Italian ryegrass; 250 g ai/ha,0
same,Nightshade plant response rating,nightshade; 62 g ai/ha,80
same,"Plant response rating, Nightshade",nightshade; 125 g ai/ha,100
same,"Plant response rating, Nightshade",nightshade; 250 g ai/ha,100
same,Kochia plant response rating,kochia [1]; 31 g ai/ha,60
same,Kochia plant response rating,kochia [1]; 62 g ai/ha,75
same,"Plant response rating, Kochia",kochia [1]; 125 g ai/ha,100
same,"Plant response rating, Kochia",kochia [1]; 250 g ai/ha,100
same,Morningglory plant response rating,morningglory; 31 g ai/ha,30
same,Morningglory plant response rating,morningglory; 62 g ai/ha,65
same,"Plant response rating, Morningglory",morningglory; 125 g ai/ha,75
same,"Plant response rating, Morningglory",morningglory; 250 g ai/ha,100
same,Johnsongrass plant response rating,johnsongrass; 31 g ai/ha,0
same,Johnsongrass plant response rating,johnsongrass; 62 g ai/ha,10
same,"Plant response rating, Johnsongrass",johnsongrass; 125 g ai/ha,50
same,"Plant response rating, Johnsongrass",johnsongrass; 250 g ai/ha,100
same,Goosegrass plant response rating,goosegrass; 31 g ai/ha,0
same,Goosegrass plant response rating,goosegrass; 62 g ai/ha,0
same,"Plant response rating, Goosegrass",goosegrass; 125 g ai/ha,5
same,"Plant response rating, Goosegrass",goosegrass; 250 g ai/ha,50
same,Waterhemp plant response rating,waterhemp; 31 g ai/ha,0
same,Waterhemp plant response rating,waterhemp; 62 g ai/ha,70
same,"Plant response rating, Waterhemp",waterhemp; 125 g ai/ha,80
same,"Plant response rating, Waterhemp",waterhemp; 250 g ai/ha,100
same,Field Bindweed plant response rating,field bindweed; 31 g ai/ha,35
same,Field Bindweed plant response rating,field bindweed; 62 g ai/ha,75
same,"Plant response rating, Field Bindweed",field bindweed; 125 g ai/ha,95
same,"Plant response rating, Field Bindweed",field bindweed; 250 g ai/ha,90
same,"Foxtail, Giant plant response rating",giant foxtail; 31 g ai/ha,0
same,"Foxtail, Giant plant response rating",giant foxtail; 62 g ai/ha,20
same,"Plant response rating, Foxtail, Giant",giant foxtail; 125 g ai/ha,65
same,"Plant response rating, Foxtail, Giant",giant foxtail; 250 g ai/ha,100
same,Corn plant response rating,corn; 31 g ai/ha,0
same,Corn plant response rating,corn; 62 g ai/ha,0
same,"Plant response rating, Corn",corn; 125 g ai/ha,30
same,"Plant response rating, Corn",corn; 250 g ai/ha,70
same,"Plant response rating, Kochia",kochia [2],90
same,Kochia plant response rating,kochia [2],100
same,"Plant response rating, Ragweed",ragweed; 125 g ai/ha,30
same,"Plant response rating, Ragweed",ragweed; 500 g ai/ha,90
same,"Plant response rating, Kochia",kochia [3]; 125 g ai/ha,80
same,"Plant response rating, Kochia",kochia [3]; 500 g ai/ha,90
same,"Plant response rating, Galium",galium; 125 g ai/ha,90
same,"Plant response rating, Galium",galium; 500 g ai/ha,90
N#Cc1cccc(Oc2ncc(Br)cn2)c1-n1cc(I)cn1 [Compound 88],Beggarticks plant response rating,"hairy beggarticks; 16 g ai/ha, preemergence",0
same,Beggarticks plant response rating,"hairy beggarticks; 31 g ai/ha, preemergence",0
same,"Plant response rating, Beggarticks","hairy beggarticks; Preemergence, 62 g ai/ha",0
same,"Plant response rating, Beggarticks","hairy beggarticks; preemergence, 125 g ai/ha",0
same,"Ryegrass, Italian plant response rating",Italian ryegrass; 16 g ai/ha,0
same,"Ryegrass, Italian plant response rating",Italian ryegrass; 31 g ai/ha,0
same,"Ryegrass, Italian plant response rating",Italian ryegrass; 62 g ai/ha,0
same,"Plant response rating, Ryegrass, Italian",Italian ryegrass; 125 g ai/ha,0
same,Nightshade plant response rating,nightshade; 31 g ai/ha,0
same,"Plant response rating, Nightshade",nightshade; 125 g ai/ha,0
same,Kochia plant response rating,kochia [1]; 16 g ai/ha,0
same,Kochia plant response rating,kochia [1]; 31 g ai/ha,0
same,Kochia plant response rating,kochia [1]; 62 g ai/ha,35
same,"Plant response rating, Kochia",kochia [1]; 125 g ai/ha,50
same,Morningglory plant response rating,morningglory; 16 g ai/ha,0
same,Morningglory plant response rating,morningglory; 31 g ai/ha,0
same,Morningglory plant response rating,morningglory; 62 g ai/ha,10
same,"Plant response rating, Morningglory",morningglory; 125 g ai/ha,15
same,Johnsongrass plant response rating,johnsongrass; 16 g ai/ha,0
same,Johnsongrass plant response rating,johnsongrass; 31 g ai/ha,0
same,Johnsongrass plant response rating,johnsongrass; 62 g ai/ha,15
same,"Plant response rating, Johnsongrass",johnsongrass; 125 g ai/ha,15
same,Goosegrass plant response rating,goosegrass; 16 g ai/ha,0
same,Goosegrass plant response rating,goosegrass; 31 g ai/ha,0
same,Goosegrass plant response rating,goosegrass; 62 g ai/ha,5
same,"Plant response rating, Goosegrass",goosegrass; 125 g ai/ha,5
same,Waterhemp plant response rating,waterhemp; 16 g ai/ha,20
same,Waterhemp plant response rating,waterhemp; 31 g ai/ha,35
same,Waterhemp plant response rating,waterhemp; 62 g ai/ha,35
same,"Plant response rating, Waterhemp",waterhemp; 125 g ai/ha,100
same,Field Bindweed plant response rating,field bindweed; 16 g ai/ha,0
same,Field Bindweed plant response rating,field bindweed; 31 g ai/ha,0
same,Field Bindweed plant response rating,field bindweed; 62 g ai/ha,0
same,"Plant response rating, Field Bindweed",field bindweed; 125 g ai/ha,50
same,"Foxtail, Giant plant response rating",giant foxtail; 16 g ai/ha,0
same,"Foxtail, Giant plant response rating",giant foxtail; 31 g ai/ha,0
same,"Foxtail, Giant plant response rating",giant foxtail; 62 g ai/ha,0
same,"Plant response rating, Foxtail, Giant",giant foxtail; 125 g ai/ha,25
same,Corn plant response rating,corn; 16 g ai/ha,0
same,Corn plant response rating,corn; 31 g ai/ha,0
same,Corn plant response rating,corn; 62 g ai/ha,35
same,"Plant response rating, Corn",corn; 125 g ai/ha,35
same,"Plant response rating, Kochia",kochia [2],100
same,Kochia plant response rating,kochia [2],100
same,"Plant response rating, Ragweed",ragweed; 125 g ai/ha,10
same,"Plant response rating, Ragweed",ragweed; 500 g ai/ha,30
same,"Plant response rating, Kochia",kochia [3]; 125 g ai/ha,80
same,"Plant response rating, Kochia",kochia [3]; 500 g ai/ha,100
same,"Plant response rating, Galium",galium; 125 g ai/ha,100
same,"Plant response rating, Galium",galium; 500 g ai/ha,100
